Results: patent publication US5350574A, “Derivatives of cyclosporina A, antibodies directed thereto and uses thereof” (The Trustees of Columbia University in the City of New York, priority 1991, dated 1994)
pIC50: −log10 of the molar value. Entries after “also recorded” stand apart in the source; their conditions may differ.

Key:
[1] = tested on: rabbit antibody R575 (anti-CsA); test: Inhibition RIA for antibody specificity with CsA analogues; format: binding; conditions: for pIC50: read-out: IC50 (Concentration for 50% inhibition), inhibition of [3H]dihydro CsA binding to R575, overnight at 4° C.; for affinity group for the antibodies (inhibition RIA): result in words
Protocol: Serum antibodies were detected by a modification of the published radioimmunoassay (5, 12 ). […] Binding by diluted preimmune serum was used as a control. Free and bound ligand were separated with charcoal supplied by Sandoz according to their procedure.
The cyclosporin derivatives were dissolved in 100% ethanol at a concentration of 5.0 mg/ml, stored at -20° C., and diluted to final concentrations of 0.27 nM to 2.7 μM in Sandoz buffer B for the inhibition experiments.

EL-4 cells = test: Cell agglutination assay, EL-4 cells; format: cell-based; conditions: inhibitor concentration not given
Protocol: (§1) T or B cells (4-8×10^4 cells) were added to 200 μl of medium (see above) containing 50 μl of either PBS (vehicle control), aminodextran, BBa-aminodextran, or CsA-BBa-aminodextran at a concentration of 5×10^-7 M, in the presence or absence of various inhibitors or solvent controls, gently agitated on a platform shaker for 15 minutes at 25° C., incubated without agitation for 2-3 hours at 25° C., placed in a refrigerator and examined for agglutination periodically. The end points can begin to be seen after about 2-3 hours.

32-6.F12 = test: Cell agglutination assay, 32-6.F12 T-cell hybridoma; format: cell-based
Protocol: as §1

DO-11.10 = test: Cell agglutination assay, DO-11.10 T-cell hybridoma; format: cell-based
Protocol: as §1

Row | SMILES | pIC50 [1] | affinity group for the antibodies (inhibition RIA) [1] | inhibition of [3H]CsA binding obtainable ([1]; maximal inhibition by competing derivative) | inhibition of agglutination of EL-4 cells by CsA-BBa-aminodextran (EL-4 cells) | inhibition of agglutination of 32-6.F12 cells by CsA-BBa-aminodextran (32-6.F12) | inhibition of agglutination of DO-11.10 cells by CsA-BBa-aminodextran (DO-11.10)
1 | C/C=C/C[C@@H](C)[C@@H](O)[C@H]1C(=O)N[C@@H]([C@@H](C)OC(C)=O)C(=O)N(C)CC(=O)N(C)[C@@H](CC(C)C)C(=O)N[C@@H](C(C)C)C(=O)N(C)[C@@H](CC(C)C)C(=O)N[C@@H](C)C(=O)N[C@H](C)C(=O)N(C)[C@@H](CC(C)C)C(=O)N(C)[C@@H](CC(C)C)C(=O)N(C)[C@@H](C(C)C)C(=O)N1C [Derivative 665] | 8.32 | high affinity group; also recorded: bind best | – | – | – | –
2 | C/C=C/C[C@@H](C)[C@@H](O)[C@H]1C(=O)N[C@@H](CC)C(=O)N(C)CC(=O)N(C)[C@@H](CC(C)C)C(=O)N[C@@H](C(C)C)C(=O)N(C)[C@@H](CC(C)C)C(=O)N[C@@H](C)C(=O)N[C@H](COC(C)(C)C)C(=O)N(C)[C@@H](CC(C)C)C(=O)N(C)[C@@H](CC(C)C)C(=O)N(C)[C@@H](C(C)C)C(=O)N1C [Derivative 717] | 5.57 | inhibits very poorly; also recorded: low affinity | more than 50% | – | – | –
3 | C/C=C/C[C@@H](C)[C@@H](O)[C@H]1C(=O)N[C@@H](CC)C(=O)N(C)CC(=O)N(C)[C@@H](CC(C)C)C(=O)N[C@@H](C(C)C)C(=O)N(C)[C@@H](CC(C)C)C(=O)N[C@@H](C)C(=O)N[C@H](C)C(=O)N(C)[C@@H](CC(C)C)C(=O)N(C)[C@@H](CC(C)C)C(=O)N(C)[C@@H]([C@@H](C)CC)C(=O)N1C [Derivative 032] | 8.15 | high affinity group; also recorded: bind best | – | – | – | –
4 | C/C=C/C[C@@H](C)[C@@H](O)[C@H]1C(=O)N[C@@H]([C@@H](C)O)C(=O)N(C)CC(=O)N(C)[C@@H](CC(C)C)C(=O)N[C@@H](C(C)C)C(=O)N(C)[C@@H](CC(C)C)C(=O)N[C@@H](C)C(=O)N[C@H](C)C(=O)N(C)[C@@H](CC(C)C)C(=O)N(C)[C@@H](CC(C)C)C(=O)N(C)[C@@H](C(C)C)C(=O)N1C [CsC] | 7.94 | Moderate affinities | – | – | – | –
5 | C/C=C/C[C@@H](C)[C@@H](OC(C)=O)[C@H]1C(=O)N[C@@H](CC)C(=O)N(C)CC(=O)N(C)[C@@H](CC(C)C)C(=O)N[C@@H](C(C)C)C(=O)N(C)[C@@H](CC(C)C)C(=O)N[C@@H](C)C(=O)N[C@H](C)C(=O)N(C)[C@@H](CC(C)C)C(=O)N(C)[C@@H](CC(C)C)C(=O)N(C)[C@@H](C(C)C)C(=O)N1C [Derivative 243] | 8.22 | high affinity group; also recorded: bind best | – | – | – | –
6 | C/C=C/C[C@@H](C)[C@@H](O)[C@H]1C(=O)N[C@@H](CC)C(=O)N2CCC[C@H]2C(=O)N(C)[C@@H](CC(C)C)C(=O)N[C@@H](C(C)C)C(=O)N(C)[C@@H](CC(C)C)C(=O)N[C@@H](C)C(=O)N[C@H](C)C(=O)N(C)[C@@H](CC(C)C)C(=O)N(C)[C@@H](CC(C)C)C(=O)N(C)[C@@H](C(C)C)C(=O)N1C [Derivative 582] | 7.92 | Moderate affinities | – | – | – | –
7 | C/C=C/C[C@@H](C)[C@@H](O)[C@H]1C(=O)N[C@@H](CC)C(=O)N(C)CC(=O)N(C)[C@@H](CC(C)C)C(=O)N[C@@H](C(C)C)C(=O)N(C)[C@H](C)C(=O)N[C@@H](C)C(=O)N[C@H](C)C(=O)N(C)[C@@H](CC(C)C)C(=O)N(C)[C@@H](CC(C)C)C(=O)N(C)[C@@H](C(C)C)C(=O)N1C [Derivative 039] | 7.74 | Moderate affinities | – | – | – | –
8 | C/C=C/C[C@@H](C)[C@@H](O)[C@H]1C(=O)N[C@@H](C(C)C)C(=O)N(C)CC(=O)N(C)[C@@H](CC(C)C)C(=O)N[C@@H](C(C)C)C(=O)N(C)[C@@H](CC(C)C)C(=O)N[C@@H](C)C(=O)N[C@H](C)C(=O)N(C)[C@@H](CC(C)C)C(=O)N(C)[C@@H](CC(C)C)C(=O)N(C)[C@@H](C(C)C)C(=O)N1C [CsD] | 8.37 | high affinity group; also recorded: bind best | – | – | – | –
9 | O=C(O)c1ccc(C(=O)c2ccccc2)cc1 [BBa, 4-Benzyoylbenzoic acid] | – | – | – | no inhibition | not | not
